Key:
[1] = test system: platinum-resistant ovarian cancer (PROC); test: Randomized phase 3 study ENGOT-ov50/GOG-3029/INNOVATE-3 (NCT03940196): TTFields therapy with weekly paclitaxel vs weekly paclitaxel alone; format: in vivo, human
Text: This randomized phase 3 study investigated TTFields therapy with paclitaxel (TTFields+PTX) vs paclitaxel (PTX) in patients with platinum-resistant ovarian cancer (PROC).
To evaluate the safety and efficacy of TTFields therapy with weekly paclitaxel compared to weekly paclitaxel alone in PROC, the Phase 3 study design shown in FIG. 1 was utilized. ENGOT-ov50/GOG-3029/INNOVATE-3 (NCT03940196) enrolled adults with PROC, ≤5 prior lines of therapy (LOT), ≤2 prior LOT following platinum-resistance, and ECOG 0-1. Patients received TTFields (200 kHz; ≥18 hours/day)+PTX (80 mg/m^2) weekly or PTX. Primary endpoint was overall survival (OS). 558 patients were randomized to receive TTFields+PTX (n=280) or PTX (n=278) March 2019 to November 2021.
Patients were heavily pretreated in the ITT population, as 24.4% of patients had received 4+prior lines of therapy (LOT), and 65.9% had received prior bevacizumab. In the overall intention-to-treat population, TTFields therapy median duration was 15.9 (0.1-159.7) weeks.
Innovate-3 study excluding patients that had received doxorubicin prior to TTFields+Paclitaxel or Paclitaxel
This Example contains further data related to the study of Example 1. FIGS. 10-11 include data of PROC patients that had received doxorubicin prior to treatment or were Doxorubicin-/PLD-naïve and which received treatment comprising TTFields plus Paclitaxel or Paclitaxel alone. With Doxorubicin treatment prior to use, overall survival was 10.97 months with TTFields and 13.21 months without TTFields. […] In addition, without prior use of doxorubicin/PLD, the hazard ratio for TTFields was 0.593 with a p value of 0.005.

[2] = test system: tumor; test: Preclinical data (unpublished): tumor fibrosis and tissue conductivity

| Structure (SMILES) | overall survival ([1]; Doxorubicin-/PLD-naïve group without prior use of doxorubicin (Example 2, FIGS. 10-11)) | overall survival, post-hoc analysis ([1]; PLD-naïve subgroup (Example 1, FIG. 7), TTFields+PTX n=113, PTX n=88) | median overall survival (OS) ([1]; overall ITT population, PROC patients, PTX 80 mg/m^2 weekly, TTFields 200 kHz, ≥18 hours/day) | overall survival ([1]; patients with Doxorubicin treatment prior to use (Example 2, FIG. 10)) | tissue conductivity [2] | tumor fibrosis [2] |
| --- | --- | --- | --- | --- | --- | --- |
| CC(=O)O[C@H]1C(=O)[C@@]2(C)[C@H]([C@H](OC(=O)c3ccccc3)[C@]3(O)C[C@H](OC(=O)[C@H](O)[C@@H](NC(=O)c4ccccc4)c4ccccc4)C(C)=C1C3(C)C)[C@]1(OC(C)=O)CO[C@@H]1C[C@@H]2O [PTX, paclitaxel] | 11.93 months | 11.7 months | 11.9 months | 13.21 months | – | – |
| COc1cccc2c1C(=O)c1c(O)c3c(c(O)c1C2=O)C[C@@](O)(C(=O)CO)C[C@@H]3O[C@H]1C[C@H](N)[C@H](O)[C@H](C)O1 [doxorubicin] | – | – | – | – | changes tissue conductivity | induces tumor fibrosis |
